What was measured:
Settings in all cases: 72 h
Caco-2 [1] = assay: cell viability relative to DMSO; higher = less toxic
HepG2 [2] = assay: as above
U2OS [3] = assay: as above
Vero E6 [4] = assay: as above
Caco-2 [5] = assay: relative viability EC50 (midpoint between 100% and the lowest measured viability); higher = less toxic
HepG2 [6] = assay: as above
U2OS [7] = assay: as above
Vero E6 [8] = assay: as above
Caco-2 [9] = assay: drug sensitivity score (DSS) for viability; higher = more toxic; extreme values may be limits of the assay
HepG2 [10] = assay: as above
U2OS [11] = assay: as above
Vero E6 [12] = assay: as above
Calu-3 [13] = assay: cell viability relative to DMSO; higher = less toxic
Calu-3 [14] = assay: relative viability EC50 (midpoint between 100% and the lowest measured viability); higher = less toxic
Calu-3 [15] = assay: drug sensitivity score (DSS) for viability; higher = more toxic; extreme values may be limits of the assay

Row | SMILES | cell viability (Caco-2 [1]; 1 nM) | cell viability (Caco-2 [1]; 10 nM) | cell viability (Caco-2 [1]; 100 nM) | cell viability (Caco-2 [1]; 1000 nM) | cell viability (Caco-2 [1]; 10000 nM) | cell viability (HepG2 [2]; 1 nM) | cell viability (HepG2 [2]; 10 nM) | cell viability (HepG2 [2]; 100 nM) | cell viability (HepG2 [2]; 1000 nM) | cell viability (HepG2 [2]; 10000 nM) | cell viability (U2OS [3]; 1 nM) | cell viability (U2OS [3]; 10 nM) | cell viability (U2OS [3]; 100 nM) | cell viability (U2OS [3]; 1000 nM) | cell viability (U2OS [3]; 10000 nM) | cell viability (Vero E6 [4]; 1 nM) | cell viability (Vero E6 [4]; 10 nM) | cell viability (Vero E6 [4]; 100 nM) | cell viability (Vero E6 [4]; 1000 nM) | cell viability (Vero E6 [4]; 10000 nM) | relative viability EC50 (Caco-2 [5]) | relative viability EC50 (HepG2 [6]) | relative viability EC50 (U2OS [7]) | relative viability EC50 (Vero E6 [8]) | drug sensitivity score (Caco-2 [9]) | drug sensitivity score (HepG2 [10]) | drug sensitivity score (U2OS [11]) | drug sensitivity score (Vero E6 [12]) | cell viability (Calu-3 [13]; 1 nM) | cell viability (Calu-3 [13]; 10 nM) | cell viability (Calu-3 [13]; 100 nM) | cell viability (Calu-3 [13]; 1000 nM) | cell viability (Calu-3 [13]; 10000 nM) | relative viability EC50 (Calu-3 [14]) | drug sensitivity score (Calu-3 [15])
1 | Cc1ccc(C)c([C@H](O)CNC(C)C)c1 [benzenemethanol,-2,5-dimethyl-[[(1-methylethyl)amino]methyl]] | 102% | 96.3% | 92.6% | 93.7% | 96.3% | 111% | 92.6% | 101% | 100% | 104% | 101% | 99.4% | 102% | 99.2% | 102% | 103% | 107% | 98.4% | 103% | 101% | > 10 µM | > 10 µM | > 10 µM | > 10 µM | 0 | 0 | 0 | 0 |  |  |  |  |  |  | 
2 | Cc1c(-c2ccc(-c3ccccc3F)cc2)nc2ccc(F)cc2c1C(=O)O [brequinar] | 123% | 93.8% | 93.4% | 105% | 111% | 105% | 104% | 95.6% | 59.2% | 41.8% | 98.2% | 93.1% | 103% | 103% | 103% | 92.9% | 93.3% | 93.5% | 66.3% | 64.2% | > 10 µM | 0.563 µM | > 10 µM |  | 0 | 8.3 | 0 | 6.6 | 96.4% | 93.9% | 101% | 106% | 99.6% | > 10 µM | 0
3 | O=c1[nH]c(=O)c2ccccc2o1 [carsalam] | 99.5% | 95.4% | 92.5% | 104% | 98.8% | 96% | 100% | 103% | 98.1% | 101% | 98.9% | 102% | 97.3% | 102% | 103% |  |  |  |  |  | > 10 µM | > 10 µM | > 10 µM |  | 0 | 0 | 0 |  | 89.6% | 93.5% | 104% | 106% | 108% | > 10 µM | 0
4 | C[N+]12CCC(CC1)C(OC(=O)C(O)(c1ccccc1)c1ccccc1)C2 (configuration not stated) [clidinium] | 102% | 112% | 106% | 95.4% | 103% | 92.5% | 108% | 90.6% | 104% | 99.7% |  |  |  |  |  | 102% | 102% | 101% | 102% | 99.8% | > 10 µM | > 10 µM |  | > 10 µM | 0 | 0 |  | 0 |  |  |  |  |  |  | 
5 | CN[C@@H]1[C@H](O[C@H]2[C@H](O[C@H]3[C@H](O)[C@@H](O)[C@H](NC(=N)N)[C@@H](O)[C@@H]3NC(=N)N)O[C@@H](C)[C@]2(O)CO)O[C@@H](CO)[C@H](O)[C@H]1O [dihydrostreptomycin] | 99.2% | 94.3% | 97.6% | 93.8% | 104% | 109% | 100% | 101% | 105% | 98.5% | 102% | 105% | 97.3% | 107% | 97.3% |  |  |  |  |  | > 10 µM | > 10 µM | > 10 µM |  | 0 | 0 | 0 |  | 97.8% | 97.1% | 106% | 96.9% | 94.8% | > 10 µM | 0
6 | CC[N+](CC)(CC)CCOc1cccc(OCC[N+](CC)(CC)CC)c1OCC[N+](CC)(CC)CC [gallamine-triethiodide] | 104% | 96.2% | 91.5% | 98.2% | 101% | 94.7% | 102% | 94% | 93.1% | 95.6% | 103% | 101% | 102% | 99.8% | 100% |  |  |  |  |  | > 10 µM | > 10 µM | > 10 µM |  | 0 | 0 | 0 |  | 104% | 108% | 104% | 90.8% | 95% | > 10 µM | 0
7 | COC(=O)C1=CO[C@@H](O[C@@H]2O[C@H](CO)[C@@H](O)[C@H](O)[C@H]2O)[C@@H]2C(CO)=CC[C@H]12 [geniposide] | 99.6% | 94.5% | 93.5% | 95.9% | 93.9% | 104% | 95.5% | 106% | 114% | 92.4% | 93.9% | 99.4% | 94.9% | 99.5% | 99% |  |  |  |  |  | > 10 µM | > 10 µM | > 10 µM |  | 0 | 0 | 0 |  | 84.8% | 98.2% | 91.2% | 96.4% | 98.4% | > 10 µM | 0
8 | c1cc(Cc2cnc[nH]2)ccn1 [immethridine] | 99.7% | 103% | 95% | 97.1% | 90.3% | 93.8% | 104% | 99.1% | 93.4% | 97% | 94.1% | 99.9% | 97.4% | 102% | 98.4% |  |  |  |  |  | > 10 µM | > 10 µM | > 10 µM |  | 0 | 0 | 0 |  | 107% | 96.8% | 94.6% | 94.8% | 103% | > 10 µM | 0
9 | CNC(=O)c1c(I)c(C(=O)NCC(=O)Nc2c(I)c(C(=O)O)c(I)c(C(=O)NCCO)c2I)c(I)c(N(C)C(C)=O)c1I [ioxaglic-acid] | 104% | 92.4% | 106% | 100% | 103% | 95.9% | 98.4% | 94% | 98.2% | 96.9% | 106% | 96.9% | 102% | 101% | 104% |  |  |  |  |  | > 10 µM | > 10 µM | > 10 µM |  | 0 | 0 | 0 |  | 109% | 101% | 97.2% | 102% | 95.5% | > 10 µM | 0
10 | CCOC(=O)CSCCC1NC(C(=O)O)CS1 (configuration not stated) [letosteine] | 90.8% | 80.7% | 97.4% | 97.9% | 75.5% | 80.5% | 96.4% | 98.7% | 95.6% | 92.9% | 101% | 102% | 107% | 99.6% | 103% | 75.4% | 102% | 74.4% | 98.3% | 93.3% | > 10 µM | > 10 µM | > 10 µM |  | 0 | 0 | 0 | 1.1 | 97.6% | 97.1% | 116% | 96.9% | 101% | > 10 µM | 0
11 | O=C(OCC(COC(=O)c1cccnc1)(COC(=O)c1cccnc1)COC(=O)c1cccnc1)c1cccnc1 [niceritrol] | 93.9% | 88.4% | 92.7% | 93.3% | 86.9% | 93.7% | 94.1% | 92.7% | 98.2% | 101% | 102% | 104% | 101% | 101% | 98.8% | 92.6% | 103% | 96.8% | 96.9% | 73.8% | > 10 µM | > 10 µM | > 10 µM |  | 0 | 0 | 0 | 1.5 | 98.5% | 108% | 101% | 106% | 115% | > 10 µM | 0
12 | CCCCCCCCCCCCCCCCCCO [octadecan-1-ol] |  |  |  |  |  |  |  |  |  |  |  |  |  |  |  | 99.2% | 103% | 102% | 94.2% | 107% |  |  |  | > 10 µM |  |  |  | 0 |  |  |  |  |  |  | 
13 | O=C(O)c1cc(=O)[nH]c(=O)[nH]1 [orotic-acid] | 105% | 94.8% | 92.6% | 80% | 102% | 106% | 117% | 98.6% | 106% | 100% | 102% | 101% | 104% | 97.7% | 99.4% |  |  |  |  |  | > 10 µM | > 10 µM | > 10 µM |  | 0 | 0 | 0 |  | 103% | 98.7% | 97.6% | 99.6% | 100% | > 10 µM | 0
14 | O=C(O)c1cn(-c2ccc(F)cc2)c2cc(N3CCNCC3)c(F)cc2c1=O [sarafloxacin] | 98.3% | 87.3% | 95.6% | 98% | 97.4% | 113% | 98.8% | 101% | 94.4% | 99.6% | 101% | 108% | 99.2% | 100% | 97.4% |  |  |  |  |  | > 10 µM | > 10 µM | > 10 µM |  | 0 | 0 | 0 |  | 93.1% | 95.7% | 102% | 99.7% | 101% | > 10 µM | 0
15 | C[C@]1(Cn2ccnn2)[C@H](C(=O)O)N2C(=O)C[C@H]2S1(=O)=O [tazobactam] | 81.7% | 96.4% | 91.3% | 94.6% | 85.4% | 107% | 102% | 97.4% | 113% | 107% | 95.4% | 102% | 98.9% | 100% | 95.6% |  |  |  |  |  | > 10 µM | > 10 µM | > 10 µM |  | 0 | 0 | 0 |  | 93.2% | 98.7% | 91.6% | 94.3% | 105% | > 10 µM | 0
16 | CN(C)CCN(Cc1ccccc1)c1ccccn1 [tripelennamine] |  |  |  |  |  | 108% | 111% | 101% | 89.7% | 78.9% |  |  |  |  |  | 110% | 110% | 105% | 102% | 97.1% |  | > 10 µM |  | > 10 µM |  | 1.8 |  | 0 |  |  |  |  |  |  | 
17 | N[C@@H]1[C@H]2CN(c3nc4c(cc3F)c(=O)c(C(=O)O)cn4-c3ccc(F)cc3F)C[C@@H]12 [trovafloxacin] | 95.6% | 122% | 84.7% | 85.5% | 71.5% | 115% | 104% | 102% | 106% | 29.9% | 101% | 108% | 99.8% | 105% | 89.9% | 95.7% | 98.8% | 102% | 110% | 98.2% |  | 3.6 µM | > 10 µM | > 10 µM | 3.1 | 3.4 | 0 | 0 | 102% | 103% | 92.4% | 97.6% | 64.1% |  | 2.1
